Assays:
[1] = molecular target: human recombinant BuChE (hBuChE) (Homo sapiens, UniProt P06276); test: BuChE inhibition, Ellman spectrophotometry; assay type: biochemical; conditions: stronger than donepezil
[2] = system: mice with scopolamine-induced memory impairment; test: Step-down passive avoidance test, scopolamine-induced memory impairment; assay type: in vivo
[3] = system: BV-2 cells; test: CCK-8 cytotoxicity in BV-2 cells; assay type: cell-based; conditions: 24 h
[4] = system: PC12 cells; test: CCK-8 cytotoxicity in PC12 cells; assay type: cell-based; conditions: 24 h
[5] = system: Kunming mice; test: In vivo acute toxicity
[6] = molecular target: eqBuChE (Equus caballus, UniProt P81908); test: BuChE inhibition, Ellman spectrophotometry; assay type: biochemical, equine; conditions: more potent than donepezil
[7] = 7d 5, 10, 20 mg/kg oral, scopolamine 3 mg/kg i.p., dose-dependent
[8] = high-dose 20 mg/kg oral vs donepezil 10 mg/kg
[9] = medium-dose 10 mg/kg oral vs donepezil 10 mg/kg

Chain of eqBuChE (P81908 whole entry): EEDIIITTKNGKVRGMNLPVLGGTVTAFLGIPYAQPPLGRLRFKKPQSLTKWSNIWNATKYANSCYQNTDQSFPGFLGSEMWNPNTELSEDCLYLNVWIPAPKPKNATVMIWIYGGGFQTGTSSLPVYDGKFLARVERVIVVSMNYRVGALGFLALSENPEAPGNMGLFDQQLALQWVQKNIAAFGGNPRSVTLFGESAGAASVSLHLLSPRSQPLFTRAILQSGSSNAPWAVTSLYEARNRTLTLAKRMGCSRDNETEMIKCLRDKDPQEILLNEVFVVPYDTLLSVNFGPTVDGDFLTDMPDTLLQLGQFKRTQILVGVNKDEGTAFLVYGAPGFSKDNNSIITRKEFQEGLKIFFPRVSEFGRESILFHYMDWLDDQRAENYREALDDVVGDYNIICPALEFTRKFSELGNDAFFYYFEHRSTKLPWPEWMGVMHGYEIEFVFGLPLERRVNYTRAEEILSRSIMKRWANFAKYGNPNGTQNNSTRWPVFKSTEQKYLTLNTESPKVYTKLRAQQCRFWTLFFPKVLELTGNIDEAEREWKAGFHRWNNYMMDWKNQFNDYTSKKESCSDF
Chain of human recombinant BuChE (hBuChE) (P06276 29-602): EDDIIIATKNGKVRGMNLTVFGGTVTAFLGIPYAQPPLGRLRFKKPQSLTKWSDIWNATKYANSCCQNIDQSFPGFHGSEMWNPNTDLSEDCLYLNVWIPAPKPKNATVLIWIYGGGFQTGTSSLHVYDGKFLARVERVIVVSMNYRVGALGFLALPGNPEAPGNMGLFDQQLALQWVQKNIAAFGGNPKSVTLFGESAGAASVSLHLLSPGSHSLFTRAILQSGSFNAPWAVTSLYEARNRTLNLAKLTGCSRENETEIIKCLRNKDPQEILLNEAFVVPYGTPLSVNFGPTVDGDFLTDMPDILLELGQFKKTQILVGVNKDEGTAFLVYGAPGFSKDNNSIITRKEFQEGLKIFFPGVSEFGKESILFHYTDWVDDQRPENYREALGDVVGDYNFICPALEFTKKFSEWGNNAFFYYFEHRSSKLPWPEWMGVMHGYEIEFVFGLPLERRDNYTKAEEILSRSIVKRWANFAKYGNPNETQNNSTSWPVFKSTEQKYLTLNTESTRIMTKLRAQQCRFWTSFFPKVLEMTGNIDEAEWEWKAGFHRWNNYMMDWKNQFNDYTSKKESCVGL

With C#CCN(C)CCCCCCCOc1cccc(CN(C)c2c3c(nc4ccccc24)CCCC3)c1 [Compound 6f, N-methyl-N-(3-((7-(methyl(prop-2-yn-1-yl)amino)heptyl)oxy)benzyl)-1,2,3,4-tetrahydroacridin-9-amine] as the compound, how does the “hBuChE potency relative to donepezil” value [1] read?
Its value is “approximately 7 fold”.

How did the “Latency in step-down test” value [2, 7] turn out when C#CCN(C)CCCCCCOCc1ccc(CN(C)c2c3c(nc4ccccc24)CCCC3)cc1 [Compound 7d, N-methyl-N-(4-(((6-(methyl(prop-2-yn-1-yl)amino)hexyl)oxy)methyl)benzyl)-1,2,3,4-tetrahydroacridin-9-amine] was run?
The value was “prolong the latency”.

And the “Number of errors in step-down test” value [2, 7]?
Its value is “reduce the number of errors”.

What about the “Latency compared with donepezil” value [2, 8] of the same compound?
Its value is “longer latency”.

And the “Number of errors compared with donepezil” value [2, 8]?
The value was “fewer errors”.

And the “Number of errors compared to model group” value ([2]; low-dose 5 mg/kg oral, Kruskal–Wallis test, p = 0.2219)?
The value was “not statistically significant”.

What about the “Latency compared with donepezil” value [2, 9] of the same compound?
Its value is “similar”.

And the “Number of errors compared with donepezil” value [2, 9]?
The value was “similar”.

And the Cytotoxicity ([3]; BV-2, 10 μM)?
Its Cytotoxicity is > 50%.

And the “Effect on cell viability” value ([3]; BV-2, 0.325 to 2.5 μM)?
The value was “no significant effect”.

And the “Effect on cell viability” value ([3]; BV-2, above 2.5 μM)?
Its value is “decrease in cell viability”.

And the “Effect on cell viability” value ([4]; PC12, 0.325 to 2.5 μM)?
Its value is “no significant effect”.

What about the “Effect on cell viability” value ([4]; PC12, above 2.5 μM) of the same compound?
The value was “decrease in cell viability”.

What about the “Death, abnormal behavior or dietary changes” value ([5]; KM mice, oral 625, 1250 and 2500 mg/kg, monitored 4 h) of the same compound?
Its value is “No such effects were observed”.

And the “Average body weight change” value ([5]; KM mice, single oral dose 625, 1250, 2500 mg/kg, 14 days, vs control group)?
Its value is “comparable to that in the control group”.

What about the “Tissue damage (HE staining of heart, liver, kidney, lung, brain)” value ([5]; mice, 2500 mg/kg oral, day 14) of the same compound?
The value was “no obvious signs of tissue damage”.

For C#CCN(C)CCCCCCCOCc1ccc(CN(C)c2c3c(nc4ccccc24)CCCC3)cc1 [Compound 7e, N-methyl-N-(4-(((7-(methyl(prop-2-yn-1-yl)amino)heptyl)oxy)methyl)benzyl)-1,2,3,4-tetrahydroacridin-9-amine], which “eqBuChE potency relative to donepezil” value [6] is on record?
The value was “approximately 18 fold”.

From publication PMC10822116 (Drug Design, Development and Therapy, 2024)
